Source: patent US20240287122A1, “NOVEL GALACTOSIDE INHIBITOR OF GALECTINS” (GALECTO BIOTECH AB, priority 2020, published 2024)

Legend:
Galectin-1 = Galectin-1 (Homo sapiens, UniProt P09382); assay: Fluorescence anisotropy assay, affinity for galectin-1; assay type: binding; settings: compound as inhibitor of the interaction between galectin and a fluorescein tagged saccharide probe
Description: (§1) The affinity of Example 1-43 for galectins were determined by a fluorescence anisotropy assay where the compound was used as an inhibitor of the interaction between galectin and a fluorescein tagged saccharide probe as described Sörme, P., Kahl-Knutsson, B., Huflejt, M., Nilsson, U. J., and Leffler H. (2004) Fluorescence polarization as an analytical tool to evaluate galectin-ligand interactions. Anal. Biochem. 334: 36-47, (Sörme et al., 2004) and Monovalent interactions of Galectin-1 By Salomonsson, Emma; Larumbe, Amaia; Tejler, Johan; Tullberg, Erik; Rydberg, Hanna; Sundin, Anders; Khabut, Areej; Frejd, Torbjomn; Lobsanov, Yuri D.; Rini, James M.; et al, From Biochemistry (2010), 49(44), 9518-9532, (Salomonsson et al., 2010).

Galectin-3 = Galectin-3 (Homo sapiens, UniProt P17931); assay: Fluorescence anisotropy assay, affinity for galectin-3; assay type: binding; settings: compound as inhibitor of the interaction between galectin and a fluorescein tagged saccharide probe
Chain of Galectin-3 (P17931 whole entry): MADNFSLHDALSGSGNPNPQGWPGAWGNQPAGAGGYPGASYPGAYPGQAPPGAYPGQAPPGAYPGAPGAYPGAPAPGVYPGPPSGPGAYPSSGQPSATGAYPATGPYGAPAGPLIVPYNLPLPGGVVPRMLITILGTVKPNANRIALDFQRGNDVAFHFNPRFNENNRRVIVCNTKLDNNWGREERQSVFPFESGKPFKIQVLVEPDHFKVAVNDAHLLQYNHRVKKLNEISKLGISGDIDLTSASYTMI
Description: as §1

Chain of Galectin-1 (P09382 whole entry): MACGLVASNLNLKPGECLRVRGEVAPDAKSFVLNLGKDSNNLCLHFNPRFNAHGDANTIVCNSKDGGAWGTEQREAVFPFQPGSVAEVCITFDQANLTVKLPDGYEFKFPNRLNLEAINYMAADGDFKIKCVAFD

Row | SMILES | Kd (Galectin-1) [nM] | Kd (Galectin-3) [nM]
1 | OCC1O[C@H](Sc2cncc(Cl)c2)C(O)C(n2cc(-n3ccc(F)n3)nn2)[C@H]1O (stereo partly drawn) [Example 4, 5-Chloropyridin-3-yl 3-deoxy-3-[4-(3-fluoro-1H-1,2-pyrazol-1-yl)-1H-1,2,3-triazol-1-yl]-1-thio-α-D-galactopyranoside] | 1700 | 360
2 | OCC1O[C@H](Sc2cncc(Cl)c2)C(O)C(n2cc(-n3ccc(Cl)n3)nn2)[C@H]1O (stereo partly drawn) [Example 5, 5-Chloropyridin-3-yl 3-[4-(3-chloro-1H-1,2-pyrazol-1-yl)-1H-1,2,3-triazol-1-yl]-3-deoxy-1-thio-α-D-galactopyranoside] | 500 | 310
3 | COC1C(n2cc(-n3ccc(Cl)n3)nn2)[C@@H](O)C(CO)O[C@@H]1Sc1cc(Cl)cnc1C(F)(F)F (stereo partly drawn) [Example 6, 5-Chloro-2-(trifluoromethyl)pyridin-3-yl 3-[4-(3-chloro-1H-1,2-pyrazol-1-yl)-1H-1,2,3-triazol-1-yl]-3-deoxy-2-O-methyl-1-thio-α-D-galactopyranoside] | 200 | 270
4 | COC1C(n2cc(-n3ccc(Cl)n3)nn2)[C@@H](O)C(CO)O[C@@H]1Sc1cnc(C(F)(F)F)c(Cl)c1 (stereo partly drawn) [Example 8, 3-Chloro-2-(trifluoromethyl)pyridin-5-yl 3-[4-(3-chloro-1H-1,2-pyrazol-1-yl)-1H-1,2,3-triazol-1-yl]-3-deoxy-2-O-methyl-1-thio-α-D-galactopyranoside] | 360 | 540
5 | COC1C(n2cc(-n3ccc(Cl)n3)nn2)[C@@H](O)C(CO)O[C@@H]1Sc1cnc(C(F)(F)F)c(Br)c1 (stereo partly drawn) [Example 9, 3-Bromo-2-(trifluoromethyl)pyridin-5-yl 3-[4-(3-chloro-1H-1,2-pyrazol-1-yl)-1H-1,2,3-triazol-1-yl]-3-deoxy-2-O-methyl-1-thio-α-D-galactopyranoside] | 210 | 390
6 | COC1C(n2cc(-n3cc(Cl)cn3)nn2)[C@@H](O)C(CO)O[C@@H]1Sc1cc(Br)cnc1C#N (stereo partly drawn) [Example 11, 5-Bromo-2-cyanopyridin-3-yl 3-[4-(4-chloro-1H-1,2-pyrazol-1-yl)-1H-1,2,3-triazol-1-yl]-3-deoxy-2-O-methyl-1-thio-α-D-galactopyranoside] | 520 | 420
7 | COC1C(n2cc(-n3ccc(F)n3)nn2)[C@@H](O)C(CO)O[C@@H]1Sc1cc(Br)cnc1C#N (stereo partly drawn) [Example 12, 5-Bromo-2-cyanopyridin-3-yl 3-deoxy-3-[4-(3-fluoro-1H-1,2-pyrazol-1-yl)-1H-1,2,3-triazol-1-yl]-2-O-methyl-1-thio-α-D-galactopyranoside] | 180 | 160
8 | COC1C(n2cc(-n3cc(F)cn3)nn2)[C@@H](O)C(CO)O[C@@H]1Sc1cc(Br)cnc1C#N (stereo partly drawn) [Example 13, 5-Bromo-2-cyanopyridin-3-yl 3-deoxy-3-[4-(4-fluoro-1H-1,2-pyrazol-1-yl)-1H-1,2,3-triazol-1-yl]-2-O-methyl-1-thio-α-D-galactopyranoside] | 180 | 1700
9 | COC1C(n2cc(-n3ccc(C)n3)nn2)[C@@H](O)C(CO)O[C@@H]1Sc1cc(Br)cnc1C#N (stereo partly drawn) [Example 14, 5-Bromo-2-cyanopyridin-3-yl 3-deoxy-3-[4-(3-methyl-1H-1,2-pyrazol-1-yl)-1H-1,2,3-triazol-1-yl]-2-O-methyl-1-thio-α-D-galactopyranoside] | 180 | 1400
10 | COC1C(n2cc(-n3nccc3C)nn2)[C@@H](O)C(CO)O[C@@H]1Sc1cc(Br)cnc1C#N (stereo partly drawn) [Example 15, 5-Bromo-2-cyanopyridin-3-yl 3-deoxy-3-[4-(5-methyl-1H-1,2-pyrazol-1-yl)-1H-1,2,3-triazol-1-yl]-2-O-methyl-1-thio-α-D-galactopyranoside] | 890 | 4300
11 | COC1C(n2cc(-n3nc(Cl)cc3C)nn2)[C@@H](O)C(CO)O[C@@H]1Sc1cc(Br)cnc1C#N (stereo partly drawn) [Example 16, 5-Bromo-2-cyanopyridin-3-yl 3-[4-(3-chloro-5-methyl-1H-1,2-pyrazol-1-yl)-1H-1,2,3-triazol-1-yl]-3-deoxy-2-O-methyl-1-thio-α-D-galactopyranoside] | 350 | 400
12 | COC1C(n2cc(-n3nc(C(F)(F)F)cc3Cl)nn2)[C@@H](O)C(CO)O[C@@H]1Sc1cc(Br)cnc1C#N (stereo partly drawn) [Example 17, 5-Bromo-2-cyanopyridin-3-yl 3-{4-[5-chloro-3-(trifluoromethyl)-1H-1,2-pyrazol-1-yl]-1H-1,2,3-triazol-1-yl}-3-deoxy-2-O-methyl-1-thio-α-D-galactopyranoside] | 2000 | 560
13 | COC1C(n2cc(-n3cc(C)c(Cl)n3)nn2)[C@@H](O)C(CO)O[C@@H]1Sc1cc(Br)cnc1C#N (stereo partly drawn) [Example 18, 5-Bromo-2-cyanopyridin-3-yl 3-[4-(3-chloro-4-methyl-1H-1,2-pyrazol-1-yl)-1H-1,2,3-triazol-1-yl]-3-deoxy-2-O-methyl-1-thio-α-D-galactopyranoside] | 350 | 41
14 | COC1C(n2cc(-n3ccc(Cl)n3)nn2)[C@@H](O)C(CO)O[C@@H]1Sc1cc(Br)cnc1C(=O)N(CC(C)C)CC(C)C (stereo partly drawn) [Example 20, 5-Bromo-2-(N,N-diisobutylcarbamoyl)pyridin-3-yl 3-[4-(3-chloro-1H-1,2-pyrazol-1-yl)-1H-1,2,3-triazol-1-yl]-3-deoxy-2-O-methyl-1-thio-α-D-galactopyranoside] | 360 | 360

These reach a lower Kd (Galectin-1). Values come first.

Row | Kd (Galectin-1) [nM] | Kd (Galectin-3) [nM] | SMILES
15 | 57 | 160 | CNC(=O)c1ccc(Br)cc1S[C@H]1OC(CO)[C@H](O)C(n2cc(-n3ccc(Cl)n3)nn2)C1OC (stereo partly drawn) [Example 1, 5-Bromo-2-(N-methyl-carbonyl)phenyl 3-[4-(3-chloro-1H-1,2-pyrazol-1-yl)-1H-1,2,3-triazol-1-yl]-3-deoxy-2-O-methyl-1-thio-α-D-galactopyranoside]
16 | 85 | 130 | COC1C(n2cc(-n3ccc(Cl)n3)nn2)[C@@H](O)C(CO)O[C@@H]1Sc1cc(Br)ccc1C#N (stereo partly drawn) [Example 2, 5-Bromo-2-cyanophenyl 3-[4-(3-chloro-1H-1,2-pyrazol-1-yl)-1H-1,2,3-triazol-1-yl]-3-deoxy-2-O-methyl-1-thio-α-D-galactopyranoside]
17 | 130 | 120 | COC1C(n2cc(-n3ccc(Cl)n3)nn2)[C@@H](O)C(CO)O[C@@H]1Sc1cc(Br)cnc1C#N (stereo partly drawn) [Example 3, 5-Bromo-2-cyanopyridin-3-yl 3-[4-(3-chloro-1H-1,2-pyrazol-1-yl)-1H-1,2,3-triazol-1-yl]-3-deoxy-2-O-methyl-1-thio-α-D-galactopyranoside]
18 | 150 | 210 | COC1C(n2cc(-n3ccc(Cl)n3)nn2)[C@@H](O)C(CO)O[C@@H]1Sc1cc(Br)cnc1C(F)(F)F (stereo partly drawn) [Example 7, 5-Bromo-2-(trifluoromethyl)pyridin-3-yl 3-[4-(3-chloro-1H-1,2-pyrazol-1-yl)-1H-1,2,3-triazol-1-yl]-3-deoxy-2-O-methyl-1-thio-α-D-galactopyranoside]
19 | 54 | 73 | COC1C(n2cc(-n3ccc(Cl)n3)nn2)[C@@H](O)C(CO)O[C@@H]1Sc1cc(Br)cnc1C(=O)N(C)C (stereo partly drawn) [Example 10, 5-Bromo-2-(N,N-dimethylcarbamoyl)pyridin-3-yl 3-[4-(3-chloro-1H-1,2-pyrazol-1-yl)-1H-1,2,3-triazol-1-yl]-3-deoxy-2-O-methyl-1-thio-α-D-galactopyranoside]
20 | 110 | 92 | CCN(C(=O)c1ncc(Br)cc1S[C@H]1OC(CO)[C@H](O)C(n2cc(-n3ccc(Cl)n3)nn2)C1OC)C(C)C (stereo partly drawn) [Example 19, 5-Bromo-2-(N,N-ethylisopropylcarbamoyl)pyridin-3-yl 3-[4-(3-chloro-1H-1,2-pyrazol-1-yl)-1H-1,2,3-triazol-1-yl]-3-deoxy-2-O-methyl-1-thio-α-D-galactopyranoside]
21 | 100 | 100 | CCN(CC1CC1)C(=O)c1ncc(Br)cc1S[C@H]1OC(CO)[C@H](O)C(n2cc(-n3ccc(Cl)n3)nn2)C1OC (stereo partly drawn) [Example 21, 5-Bromo-2-[N,N-(cyclopropylmethyl)ethylcarbamoyl]pyridin-3-yl 3-[4-(3-chloro-1H-1,2-pyrazol-1-yl)-1H-1,2,3-triazol-1-yl]-3-deoxy-2-O-methyl-1-thio-α-D-galactopyranoside]
22 | 98 | 76 | COC1C(n2cc(-n3ccc(Cl)n3)nn2)[C@@H](O)C(CO)O[C@@H]1Sc1cc(Br)cnc1C(=O)N(C)CC(C)(C)F (stereo partly drawn) [Example 22, 5-Bromo-2-[N,N-(2-fluoro-2-methylpropyl)methylcarbamoyl]pyridin-3-yl 3-[4-(3-chloro-1H-1,2-pyrazol-1-yl)-1H-1,2,3-triazol-1-yl]-3-deoxy-2-O-methyl-1-thio-α-D-galactopyranoside]
23 | 87 | 72 | CCN(C(=O)c1ncc(Br)cc1S[C@H]1OC(CO)[C@H](O)C(n2cc(-n3ccc(Cl)n3)nn2)C1OC)C(C)(C)C (stereo partly drawn) [Example 23, 5-Bromo-2-[N,N-(tert-butyl)ethylcarbamoyl]pyridin-3-yl 3-[4-(3-chloro-1H-1,2-pyrazol-1-yl)-1H-1,2,3-triazol-1-yl]-3-deoxy-2-O-methyl-1-thio-α-D-galactopyranoside]
24 | 120 | 83 | COC1C(n2cc(-n3ccc(Cl)n3)nn2)[C@@H](O)C(CO)O[C@@H]1Sc1cc(Br)cnc1C(=O)N(CC1CC1)CC1CC1 (stereo partly drawn) [Example 24, 5-Bromo-2-[N,N-bis(cyclopropylmethyl)carbamoyl]pyridin-3-yl 3-[4-(3-chloro-1H-1,2-pyrazol-1-yl)-1H-1,2,3-triazol-1-yl]-3-deoxy-2-O-methyl-1-thio-α-D-galactopyranoside]
